Results on 6 compounds are retold here after patent publication US20260297129A1, “PEPTIDES AS SELECTIVE IL-23 RECEPTOR INHIBITORS” (SANOFI, priority 2023, published 2026).

Like-named read-outs stand apart in the source and are kept apart here. Numbered stars: 1 amine (or outer) side, 2 acyl side, 3 side chain; on linkers, the order of the positions; unused ones are H or OH. Bridge positions count the residues as written; N and C are the ends. Square brackets hold non-standard residues; d marks the D form. Peptide text beside a SMILES is read from it. * marks the point of attachment. Lys(Me,(CH2)4NMe(CH2)5CO) = CN(CCCCCC(=O)[*:3])CCCCN(C)CCCC[C@H](N[*:1])C(=O)[*:2]; Lys(Me,(CH2)4NMe(CH2)4CO) = CN(CCCCC(=O)[*:3])CCCCN(C)CCCC[C@H](N[*:1])C(=O)[*:2]; Trp(7-Me) = Cc1cccc2c(C[C@H](N)C(=O)O)c[nH]c12; Trp(1-Me) = Cn1cc(C[C@H](N)C(=O)O)c2ccccc21; NH(2-(3-pyridyl)ethyl) = c1cncc(CCN*)c1; αMeLys(Me2) = CN(C)CCCC[C@](C)(N)C(=O)O; 2Nal = N[C@@H](Cc1ccc2ccccc2c1)C(=O)O; 3Pal = N[C@@H](Cc1cccnc1)C(=O)O; Aun = NCCCCCCCCCCC(=O)O; Thp = NC1(C(=O)O)CCOCC1; Me2NCH2CH2 = CN(C)CC*; Aib = CC(C)(N)C(=O)O; Sar = CNCC(=O)O

The nature of data set [1]: Solubility of peptide compounds in buffer formulations (Table 5). The class given is physicochemical. The note with it: target 1 mg/ml. The method, then:
Prior to the solubility measurement of a peptide batch, its purity was determined through UHPLC/MS method A.
For solubility testing the target concentration was 1 mg pure compound/ml. Therefore, solutions from solid samples were prepared in a buffer system at a concentration of 1 mg/mL compound. The solid samples were obtained by drying down aliquots of a freshly prepared dimethyl sulfoxide stock solution using a THERMO SPEEDVAC vacuum centrifuge. The dry down time was 3 hours.
The following buffer systems were applied: • Solubility buffer system A) 50 mM HCl pH 1.2 • Solubility buffer system B) 50 mM phosphate buffer pH 6.5 • Solubility buffer system C) 50 mM phosphate buffer pH 7.4 • UHPLC-UV was performed using analytical method A after 2 hours of gentle agitation from the filtered (0.45 μm filter plates) solutions, which were obtained by 10 mins of centrifugation forced filtration at 1500 RCF (relative centrifugal acceleration).
The solubility was determined by the comparison of the UV peak area of 2 μL-injections of a buffered sample diluted 1:10 with a standard curve of a dimethyl sulfoxide reference sample of known concentration. The different extinction coefficients were taken into account for the calculation.

A short description of data set [2]: Protease stability in simulated intestinal fluids (FaSSIF) (Table 7). In kind it is in vitro ADME. The note with it: fassif with pancreatin, 37° C.; for remaining at 1 h, 1 µM: 60 min, read-out: Remaining percentage of peptide compound, FaSSIF 60 (min); for remaining at 2 h, 1 µM: 120 min, read-out: Remaining percentage of peptide compound, FaSSIF 120 (min); for remaining at 4 h, 1 µM: 240 min, read-out: Remaining percentage of peptide compound, FaSSIF 240 (min). The protocol: (§1) Studies were carried out in simulated intestinal fluid (SIF) and simulated gastric fluid (SGF) to evaluate gastric stability of the peptide compounds disclosed herein.
Similarly, the term “Pancreatin-SIF” refers to a solution of simulated intestinal fluid containing pancreatin whereas “SIF-media” refers to a solution of simulated intestinal fluid without pancreatin. Pancreatin-SIF was prepared by dissolving 1 mg Pancreatin (MP Biomedicals) in 10 mL SIF media concentrate (PROSENSE).
(§2) Peptide compounds were first dissolved at 1 mM stock concentration in 0.01 HCl (+/−10% of DMSO) and were than diluted further with water to a stock concentration of 20 μM. Final peptide concentration in the incubation was 1 μM.
(§3) To 76 μL of the Pepsin-SGF buffer, 4 μL of the 20 μM peptide stock solution was added and incubated at 37° C. At each timepoint (0, 60, 120 and 240 minutes) the reaction was quenched with addition of 80 μL Ethanol (0.1% HCOOH). The samples were centrifuged for 20 minutes and an aliquot of the supernatant 100 μL were transferred to a LoBind-MTP plate and analyzed by LCMS/MS. The peak area response was calculated at each time point for each test compound. As internal reference, the peak area response of the same test compound at T0 was calculated. The percentage remaining at each timepoint was calculated based on the peak area response ratio of the test compound at T0. Time 0 was set to 100%, and all later timepoints were calculated relative to time 0.

The nature of data set [3]: Protease stability in simulated gastric fluids (FaSSGF) (Table 7). In kind it is in vitro ADME. The note with it: fassgf with pepsin, 60 min, 37° C., read-out: Remaining percentage of peptide compound, FaSSGF 60 (min). The method, then:
as §1
For clarification, the term “Pepsin-SGF” refers to a solution of simulated gastric fluid containing pepsin whereas “SGF media” refers to a solution of simulated gastric fluid without pepsin. Pepsin-SGF was prepared by dissolving 320 mg Pepsin (Merck Millipore) in 100 mL SGF media concentrate (PROSENSE).
as §2
as §3, with “(0,1%” for “(0.1%”
as §3

The subject of data set [4] is IL-23 induced STAT3 signaling (IL-23 receptor) in HEK-Blue IL-23 cells. The experiment in a line: Inhibition of IL-23 induced STAT3 signaling in HEK-Blue IL-23 cells, SEAP reporter (Table 9). The note with it: human IL23 0.25 ng/ml, overnight, read-out: Inhibition of IL-23 induced pSTAT3 (IC50 nM). In kind it is cell-based. The source says: HEK-Blue™ IL-23 cells (INVIVOGEN) are designed for the detection of bioactive human (hIL-23) and murine IL-23 (mIL-23) by monitoring the activation of the STAT3 pathway. Binding of IL-23 to its receptor on the surface of HEK-Blue™ IL-23 cells triggers a signaling cascade leading to the activation of STAT3 and the subsequent production of secreted embryonic alkaline phosphatase (SEAP). This can be readily assessed using QUANTI-Blue™ Solution, a SEAP detection reagent.
HEK-Blue™ IL-23 cells were cultured as described by INVIVOGEN.
On the first day of assay 10 μL of the HEK-BLUE IL23 cell suspension (final concentration: 10,000 cells/well) and 10 μl of serially diluted peptides solutions were dispensed into a 384-well assay plate. After pre-incubation of the reaction mixtures at 37° C./5% CO2/95% humidity for 60 minutes, 10 μl of the humanIL23 cytokine (final concentration: 0.25 ng/ml) was added to each well for the STAT3 signaling activation. The plate was incubated overnight at 37° C./5% CO2/95% humidity.
On the second day 20 μl per well of QUANTI-BLUE detection solution (prepared according to the manufacture instruction) was dispensed into a new 384-well plate and followed by the transfer of 5 μl supernatant of the overnight incubated cell/sample mixtures. After incubation of 45 min at room temperature signals were measured with PHERASTAR (BMG) at OD 620-655 nm.
Dose response data were fitted with XLfit.

Where [5] appears, read: Buffer pH 1.1 (head; method: 50 mM HCl pH 1.2), 2 h agitation, read-out: Solubility, Buffer pH 1.1.
[6] abbreviates: aqueous buffer, 50 mM phosphate buffer pH 6.5, 2 h agitation, read-out: Solubility, Buffer pH 6.5.
The mark [7] stands for this setting: aqueous buffer, 50 mM phosphate buffer pH 7.4, 2 h agitation, read-out: Solubility, Buffer pH 7.4.

Turning to `CN(C)CCOc1ccc(C[C@@H]2NC(=O)C3(CCOCC3)NC(=O)[C@H](CCC(N)=O)NC(=O)[C@H](Cc3cn(C)c4ccccc34)NC(=O)CCCCN(C)CCCCN(C)CCCC[C@@H](C(=O)NCC(=O)NCCc3cccnc3)NC(=O)C(C)(C)NC(=O)[C@H](Cc3ccc4ccccc4c3)NC2=O)cc1` [compound 25] ([Trp(1-Me)]Q[Thp]Y(Me2NCH2CH2)[2Nal][Aib][Lys(Me,(CH2)4NMe(CH2)4CO)]G-{NH(2-(3-pyridyl)ethyl)}; lactam N-7), the solubility at 2 h in data set [1] (setting [5]) was not below 950 µg/mL; in data set [1] (setting [6]), not below 890 µg/mL; in data set [1] (setting [7]) it was not below 860 µg/mL. For the same compound, the share remaining at 1 h, 1 µM in data set [2] was 97%; in data set [3], 98%. Moreover, the share remaining at 2 h, 1 µM in data set [2] was 95%. Moreover, the amount remaining at 4 h, 1 µM in data set [2] was 96%. In addition, the half-inhibitory concentration (IC50) in data set [4] came out at 42.5 nM.

In the case of `CC(=O)NCCCC[C@@H]1NC(=O)[C@H](Cc2c[nH]c3ccccc23)NC(=O)CCCCN(C)CCCCN(C)CCCC[C@@H](C(=O)N[C@@H](CO)C(=O)N[C@@H](Cc2cccnc2)C(=O)N(C)CC(N)=O)NC(=O)C(C)(C)NC(=O)[C@H](Cc2ccc3ccccc3c2)NC(=O)[C@H](Cc2ccc(OCCN(C)C)cc2)NC(=O)C2(CCOCC2)NC1=O` [compound 42] (WK(Ac)[Thp]Y(Me2NCH2CH2)[2Nal][Aib][Lys(Me,(CH2)4NMe(CH2)4CO)]S[3Pal][Sar]-NH2; lactam N-7), the results for the solubility at 2 h in data set [1] (setting [5]), in data set [1] (setting [6]) and in data set [1] (setting [7]) were not below 1010 µg/mL, not below 1030 µg/mL and not below 1040 µg/mL, respectively. The share remaining at 1 h, 1 µM in data set [2] is 59%; in data set [3], 100%. The share remaining at 2 h, 1 µM in data set [2] was 42%. Also, the fraction remaining at 4 h, 1 µM in data set [2] is 23%. For the same compound, in data set [4], the IC50 came to 4.37 nM.

For `CC(=O)NCCCC[C@@H]1NC(=O)[C@H](Cc2c[nH]c3c(C)cccc23)NC(=O)CCCCCN(C)CCCCN(C)CCCC[C@@H](C(=O)NCC(=O)N[C@@H](Cc2cccnc2)C(=O)N(C)CC(N)=O)NC(=O)C(C)(C)NC(=O)[C@H](Cc2ccc3ccccc3c2)NC(=O)[C@H](Cc2ccc(OCCN(C)C)cc2)NC(=O)C2(CCOCC2)NC1=O` [compound 27] ([Trp(7-Me)]K(Ac)[Thp]Y(Me2NCH2CH2)[2Nal][Aib][Lys(Me,(CH2)4NMe(CH2)5CO)]G[3Pal][Sar]-NH2; lactam N-7), the solubility at 2 h in data set [1] (setting [5]) is not below 980 µg/mL; in data set [1] (setting [6]), not below 920 µg/mL; in data set [1] (setting [7]), not below 960 µg/mL. Moreover, the results for the amount remaining at 1 h, 1 µM in data set [2] and in data set [3] were 97% and 100%, respectively. Besides, in data set [2], the amount remaining at 2 h, 1 µM was 94%. For the same compound, in data set [2], the fraction remaining at 4 h, 1 µM is 94%. Also, the concentration for half-maximal inhibition (IC50) in data set [4] amounted to 3.12 nM.

As for `CN(C)CCOc1ccc(C[C@@H]2NC(=O)C3(CCOCC3)NC(=O)[C@H](CCC(N)=O)NC(=O)[C@H](Cc3cn(C)c4ccccc34)NC(=O)CCCCCN(C)CCCCN(C)CCCC[C@@H](C(=O)N[C@@H](CC(N)=O)C(=O)N[C@@H](Cc3cccnc3)C(=O)N(C)CC(N)=O)NC(=O)C(C)(C)NC(=O)[C@H](Cc3ccc4ccccc4c3)NC2=O)cc1` [compound 33] ([Trp(1-Me)]Q[Thp]Y(Me2NCH2CH2)[2Nal][Aib][Lys(Me,(CH2)4NMe(CH2)5CO)]N[3Pal][Sar]-NH2; lactam N-7), the solubility at 2 h is not below 1000 µg/mL in data set [1] (setting [5]), not below 1120 µg/mL in data set [1] (setting [6]) and not below 950 µg/mL in data set [1] (setting [7]). The amount remaining at 1 h, 1 µM is 97% in data set [2] and 100% in data set [3]. Moreover, the fraction remaining at 2 h, 1 µM in data set [2] is 94%. Also, in data set [2], the amount remaining at 4 h, 1 µM is 94%. Moreover, in data set [4], the 50% inhibitory concentration (IC50) is 0.8 nM.

For the compound `Cc1cccc2c(C[C@@H]3NC(=O)CCCCCN(C)CCCCN(C)CCCC[C@@H](C(=O)NCC(=O)N[C@@H](Cc4cccnc4)C(=O)N(C)CC(N)=O)NC(=O)C(C)(C)NC(=O)[C@H](Cc4ccc5ccccc5c4)NC(=O)[C@H](Cc4ccc(OCCN(C)C)cc4)NC(=O)C4(CCOCC4)NC(=O)[C@H](CCC(N)=O)NC3=O)c[nH]c12` [compound 26] ([Trp(7-Me)]Q[Thp]Y(Me2NCH2CH2)[2Nal][Aib][Lys(Me,(CH2)4NMe(CH2)5CO)]G[3Pal][Sar]-NH2; lactam N-7), the results for the solubility at 2 h in data set [1] (setting [5]), in data set [1] (setting [6]) and in data set [1] (setting [7]) were not below 1000 µg/mL, not below 1010 µg/mL and not below 890 µg/mL, respectively. The fraction remaining at 1 h, 1 µM was 92% in data set [2] and 95% in data set [3]. Moreover, in data set [2], the fraction remaining at 2 h, 1 µM is 88%. Also, in data set [2], the amount remaining at 4 h, 1 µM was 87%. In addition, the IC50 in data set [4] was determined as 2.32 nM.

In the case of `CC(=O)NCCCC[C@@H]1NC(=O)[C@H](Cc2c[nH]c3c(C)cccc23)NC(=O)CCCCCCCCCCNC(=O)CC[C@@H](C(=O)N[C@@H](CC(N)=O)C(=O)N[C@@H](Cc2cccnc2)C(=O)N(C)CC(N)=O)NC(=O)[C@](C)(CCCCN(C)C)NC(=O)[C@H](Cc2ccc3ccccc3c2)NC(=O)[C@H](Cc2ccc(OCCN(C)C)cc2)NC(=O)C2(CCOCC2)NC1=O` [compound 21] ([Aun][Trp(7-Me)]K(Ac)[Thp]Y(Me2NCH2CH2)[2Nal][αMeLys(Me2)]EN[3Pal][Sar]-NH2; lactam N-8), the solubility at 2 h in data set [1] (setting [5]) was not below 1150 µg/mL; in data set [1] (setting [6]), not below 1170 µg/mL; in data set [1] (setting [7]), not below 1010 µg/mL. The share remaining at 1 h, 1 µM in data set [2] was 97%; in data set [3], 91%. Besides, the share remaining at 2 h, 1 µM in data set [2] is 100%. The amount remaining at 4 h, 1 µM in data set [2] was 101%. Also, in data set [4], the IC50 was determined as 0.27 nM.
